Activity calls are given as the source filed them. The rule behind the calls is not given here.
Legend:
[1] = target: Tryptophan 2,3-dioxygenase (Homo sapiens) (UniProt P48775); experiment: Inhibition of TDO in human SW48 cells; format: cell-based
[2] = target: T1, Indoleamine 2,3-dioxygenase 1 (Homo sapiens, UniProt P14902); experiment: Inhibition of IDO1 in human HeLa cells assessed as production of N-formylkynurenine using tryptophan as substrate in presence of inactivated fetal bovine serum; format: cell-based
T1 sequence (P14902 whole entry): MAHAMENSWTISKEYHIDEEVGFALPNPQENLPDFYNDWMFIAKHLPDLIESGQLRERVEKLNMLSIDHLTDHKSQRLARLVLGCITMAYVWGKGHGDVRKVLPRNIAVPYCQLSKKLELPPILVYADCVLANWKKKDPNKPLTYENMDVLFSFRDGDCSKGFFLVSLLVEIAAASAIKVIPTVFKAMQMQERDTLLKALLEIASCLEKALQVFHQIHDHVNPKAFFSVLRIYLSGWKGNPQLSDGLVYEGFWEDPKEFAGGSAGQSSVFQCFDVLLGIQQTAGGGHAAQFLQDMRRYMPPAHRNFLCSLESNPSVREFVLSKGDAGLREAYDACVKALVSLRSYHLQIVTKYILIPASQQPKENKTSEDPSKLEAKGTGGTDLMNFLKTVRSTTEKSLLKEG

[3] = target: T1, Indoleamine 2,3-dioxygenase 1; experiment: Inhibition of IDO1 in human whole blood; format: tissue-based
[4] = target: T1, Indoleamine 2,3-dioxygenase 1; experiment: Inhibition of IDO1 in human whole blood assessed as unbound concentration; format: tissue-based
[5] = Unbound clearance in male Wistar Han rat at 0.05 mg/kg, iv; format: ADME, organism-based; conditions: in vivo
[6] = MRT in male Wistar Han rat at 0.05 mg/kg, iv; format: ADME, organism-based; conditions: in vivo
[7] = male, Wistar Han, read-out: MRT

Chain of Tryptophan 2,3-dioxygenase (Homo sapiens) (P48775 whole entry, looked up): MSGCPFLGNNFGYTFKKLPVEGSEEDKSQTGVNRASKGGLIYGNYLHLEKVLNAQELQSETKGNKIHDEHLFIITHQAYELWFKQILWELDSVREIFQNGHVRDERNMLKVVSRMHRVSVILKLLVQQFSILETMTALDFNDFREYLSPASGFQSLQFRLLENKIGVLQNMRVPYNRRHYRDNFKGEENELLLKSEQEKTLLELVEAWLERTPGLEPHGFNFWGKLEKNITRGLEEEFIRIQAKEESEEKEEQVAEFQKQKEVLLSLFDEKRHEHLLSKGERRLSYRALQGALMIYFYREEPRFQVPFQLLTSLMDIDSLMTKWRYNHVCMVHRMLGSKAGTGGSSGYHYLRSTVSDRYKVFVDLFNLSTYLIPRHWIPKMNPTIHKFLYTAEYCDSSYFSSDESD

| SMILES | inhibition [1] | IC50 [2] [nM] | also measured |
| --- | --- | --- | --- |
| O=C(c1cccc(Cl)c1)N1CCCC2CC(C3(C(=O)Nc4ccc(F)cc4)CCC3)CCC21 (stereo in doubt; 8) [listing 1 of 2 here] | inactive |  |  |
| CC(C(=O)Nc1ccc(Cl)cc1)N1CCC2C(CCN2C(=O)OC2CC2)C1 (stereo in doubt; 40) |  | 1150 |  |
| CC(C(=O)Nc1ccc(Cl)cc1)N1CCC2C(CCCN2C(=O)OC2CC2)C1 (stereo in doubt; 25) |  | 3.7 | IC50 [3]: 293 nM |
| C[C@@H](C(=O)Nc1ccc(F)cc1)C1CCC2C(CCCN2C(=O)c2cccc(Cl)c2)C1 (stereo in doubt; 6) [listing 1 of 2 here] | inactive |  |  |
| O=C(C1CC1)N1CCCC2CC(C3(C(=O)Nc4ccc(F)cc4)CCC3)CCC21 (stereo in doubt; 12) [listing 1 of 2 here] | inactive |  |  |
| Cc1nccc(N2CCCC3CC(C4(C(=O)Nc5ccc(F)cc5)CCC4)CCC32)n1 (stereo in doubt; 15) [listing 1 of 2 here] |  | 1.6 | IC50 [3]: 10 nM; IC50 [4]: 0.29 nM; CL free [5]: 78.54 L/h/kg; MRT [6, 7]: 1.7 h |
| Cc1nccc(N2CCCC3CC(C4(C(=O)Nc5ccc(F)cc5)CCC4)CCC32)n1 (stereo in doubt; 16) [listing 1 of 2 here] |  | 4.2 | CL free [5]: 113 L/h/kg; MRT ([6]; 0.05 mg/kg): 1.8 h |
| CC(C(=O)Nc1ccc(Cl)cc1)N1CCC2C(CCN2C(=O)OC2CC2)C1 (stereo in doubt; 38) |  | 16 | CL free [5]: 143.6 L/h/kg; MRT [6, 7]: 1.5 h |
| O=C(c1cccc(Cl)c1)N1CCCC2CC(C3(C(=O)Nc4ccc(F)cc4)CCC3)CCC21 (stereo in doubt; 9) [listing 1 of 2 here] | inactive |  |  |
| O=C(C1CC1)N1CCCC2CC(C3(C(=O)Nc4ccc(F)cc4)CCC3)CCC21 (stereo in doubt; 13) [listing 1 of 2 here] | inactive |  |  |
| CC(C(=O)Nc1ccc(Cl)cc1)N1CCC2C(CCN2C(=O)OC2CC2)C1 (stereo in doubt; 39) |  | 184 | CL free [5]: 39.8 L/h/kg; MRT ([6]; 0.05 mg/kg): 2.8 h |
| O=C(c1cccc(Cl)c1)N1CCCC2CC(C3(C(=O)Nc4ccc(F)cc4)CCC3)CCC21 (stereo in doubt; 9) [listing 2 of 2 here] |  | 7 |  |
| O=C(C1CC1)N1CCCC2CC(C3(C(=O)Nc4ccc(F)cc4)CCC3)CCC21 (stereo in doubt; 14) [listing 1 of 2 here] | inactive |  |  |
| Cc1nccc(N2CCCC3CC(C4(C(=O)Nc5ccc(F)cc5)CCC4)CCC32)n1 (stereo in doubt; 18) [listing 1 of 2 here] | inactive |  |  |
| O=C(C1CC1)N1CCCC2CC(C3(C(=O)Nc4ccc(F)cc4)CCC3)CCC21 (stereo in doubt; 11) [listing 1 of 2 here] |  | 107 |  |
| O=C(Nc1ccc(F)cc1)C1(C2CCC3C(CCCN3c3ccnc(C(F)(F)F)n3)C2)CCC1 (stereo in doubt; 21) [listing 1 of 2 here] | inactive |  |  |
| O=C(C1CC1)N1CCCC2CC(C3(C(=O)Nc4ccc(F)cc4)CCC3)CCC21 (stereo in doubt; 12) [listing 2 of 2 here] |  | 1.5 | IC50 [3]: 15 nM; IC50 [4]: 0.86 nM |
| Cc1nccc(N2CCCC3CC(C4(C(=O)Nc5ccc(F)cc5)CCC4)CCC32)n1 (stereo in doubt; 17) [listing 1 of 2 here] |  | 32 |  |
| Cc1nccc(N2CCCC3CN(C(C)C(=O)Nc4ccc(Cl)cc4)CCC32)n1 (stereo in doubt; 30) |  | 40 |  |
| CC(C(=O)Nc1ccc(Cl)cc1)N1CCC2C(CCCN2C(=O)OC2CC2)C1 (stereo in doubt; 28) |  | 32 |  |
| CC(C(=O)Nc1ccc(Cl)cc1)N1CCC2C(CCCN2c2ccnc(C(F)(F)F)n2)C1 (stereo in doubt; 34) |  | 3.6 | IC50 [3]: 809 nM; CL free [5]: 780.24 L/h/kg |
| O=C(Nc1ccc(F)cc1)C1(C2CCC3C(CCCN3c3ccnc(C(F)(F)F)n3)C2)CCC1 (stereo in doubt; 21) [listing 2 of 2 here] |  | 2.6 | CL free [5]: 431 L/h/kg; MRT ([6]; 0.05 mg/kg): 2.9 h |
| C[C@@H](C(=O)Nc1ccc(F)cc1)C1CCC2C(CCCN2C(=O)c2cccc(Cl)c2)C1 (stereo in doubt; 5) [listing 1 of 2 here] |  | 2.1 | IC50 [3]: 312 nM |
| O=C(CN1CCC2C(CCCN2C(=O)c2cccc(Cl)c2)C1)Nc1ccc(F)cc1 (stereo in doubt; 23) |  | 3.9 |  |
| O=C(Nc1ccc(F)cc1)C1(C2CCC3C(CCCN3c3ccnc(C(F)(F)F)n3)C2)CCC1 (stereo in doubt; 22) [listing 1 of 2 here] |  | 3.2 | CL free [5]: 357.1 L/h/kg; MRT ([6]; 0.05 mg/kg): 3.5 h |
| O=C(c1cccc(Cl)c1)N1CCCC2CC(C3(C(=O)Nc4ccc(F)cc4)CCC3)CCC21 (stereo in doubt; 7) [listing 1 of 2 here] |  | 2.4 | IC50 [3]: 123 nM; IC50 [4]: 0.98 nM |
| Cc1nccc(-n2ncc3c2CCN(C(C)C(=O)Nc2ccc(Cl)cc2)C3)n1 (stereo in doubt; 41) |  | 1050 |  |

| SMILES | inhibition [1] | IC50 [2] [nM] | also measured |
| --- | --- | --- | --- |
| C[C@@H](C(=O)Nc1ccc(F)cc1)C1CCC2C(CCCN2C(=O)c2cccc(Cl)c2)C1 (stereo in doubt; 6) [listing 2 of 2 here] |  | 2.3 | CL free [5]: 269 L/h/kg; MRT ([6]; 0.05 mg/kg): 1.1 h |
| O=C(c1cccc(Cl)c1)N1CCCC2CC(C3(C(=O)Nc4ccc(F)cc4)CCC3)CCC21 (stereo in doubt; 10) [listing 1 of 2 here] | inactive |  |  |
| O=C(Nc1ccc(F)cc1)C1(C2CCC3C(CCCN3c3ccnc(C(F)(F)F)n3)C2)CCC1 (stereo in doubt; 22) [listing 2 of 2 here] | inactive |  |  |
| Cc1nccc(N2CCCC3CC(C4(C(=O)Nc5ccc(F)cc5)CCC4)CCC32)n1 (stereo in doubt; 16) [listing 2 of 2 here] | inactive |  |  |
| O=C(C1CC1)N1CCCC2CC(C3(C(=O)Nc4ccc(F)cc4)CCC3)CCC21 (stereo in doubt; 14) [listing 2 of 2 here] |  | 115 |  |
| O=C(C1CC1)N1CCCC2CC(C3(C(=O)Nc4ccc(F)cc4)CCC3)CCC21 (stereo in doubt; 13) [listing 2 of 2 here] |  | 19 |  |
| Cc1nccc(N2CCCC3CC(C4(C(=O)Nc5ccc(F)cc5)CCC4)CCC32)n1 (stereo in doubt; 15) [listing 2 of 2 here] | inactive |  |  |
| O=C(Nc1ccc(F)cc1)C1(C2CCC3C(CCCN3c3ccnc(C(F)(F)F)n3)C2)CCC1 (stereo in doubt; 19) [listing 1 of 2 here] |  | 1.9 | CL free [5]: 799.26 L/h/kg; MRT [6, 7]: 1.9 h |
| O=C(Nc1ccc(F)cc1)C1(C2CCC3C(CCCN3c3ccnc(C(F)(F)F)n3)C2)CCC1 (stereo in doubt; 19) [listing 2 of 2 here] | inactive |  |  |
| Cc1nccc(N2CCCC3CN(C(C)C(=O)Nc4ccc(Cl)cc4)CCC32)n1 (stereo in doubt; 29) |  | 302 |  |
| C[C@@H](C(=O)Nc1ccc(F)cc1)C1CCC2C(CCCN2C(=O)c2cccc(Cl)c2)C1 (stereo in doubt; 3) | inactive |  |  |
| Cc1nccc(-n2ncc3c2CCN(C(C)C(=O)Nc2ccc(Cl)cc2)C3)n1 (stereo in doubt; 42) |  | 27700 |  |
| CC(C(=O)Nc1ccc(Cl)cc1)N1CCC2C(CCCN2c2ccnc(C(F)(F)F)n2)C1 (stereo in doubt; 36) |  | 5.4 | IC50 [3]: 1000 nM; CL free [5]: 1666 L/h/kg; MRT ([6]; 0.05 mg/kg): 3.7 h |
| C[C@@H](C(=O)Nc1ccc(F)cc1)C1CCC2C(CCCN2C(=O)c2cccc(Cl)c2)C1 (stereo in doubt; 5) [listing 2 of 2 here] | inactive |  |  |
| O=C(Nc1ccc(F)cc1)C1(C2CCC3C(CCCN3c3ccnc(C(F)(F)F)n3)C2)CCC1 (stereo in doubt; 20) | inactive |  |  |
| Cc1nccc(N2CCCC3CN(C(C)C(=O)Nc4ccc(Cl)cc4)CCC32)n1 (stereo in doubt; 31) |  | 2.9 | IC50 [3]: 130 nM |
| C[C@@H](C(=O)Nc1ccc(F)cc1)C1CCC2C(CCCN2C(=O)c2cccc(Cl)c2)C1 (stereo in doubt; 4) [listing 1 of 2 here] |  | 1.9 |  |
| CC(C(=O)Nc1ccc(Cl)cc1)N1CCC2C(CCN2C(=O)OC2CC2)C1 (stereo in doubt; 37) |  | 11 |  |
| O=C(c1cccc(Cl)c1)N1CCCC2CC(C3(C(=O)Nc4ccc(F)cc4)CCC3)CCC21 (stereo in doubt; 7) [listing 2 of 2 here] | inactive |  |  |
| O=C(c1cccc(Cl)c1)N1CCCC2CC(C3(C(=O)Nc4ccc(F)cc4)CCC3)CCC21 (stereo in doubt; 8) [listing 2 of 2 here] |  | 3 |  |
| O=C(c1cccc(Cl)c1)N1CCCC2CC(C3(C(=O)Nc4ccc(F)cc4)CCC3)CCC21 (stereo in doubt; 10) [listing 2 of 2 here] |  | 14 |  |
| C[C@@H](C(=O)Nc1ccc(F)cc1)C1CCC2C(CCCN2C(=O)c2cccc(Cl)c2)C1 (stereo in doubt; 4) [listing 2 of 2 here] | inactive |  |  |
| CC(C(=O)Nc1ccc(Cl)cc1)N1CCC2C(CCCN2C(=O)OC2CC2)C1 (stereo in doubt; 26) |  | 9.1 |  |
| O=C(C1CC1)N1CCCC2CC(C3(C(=O)Nc4ccc(F)cc4)CCC3)CCC21 (stereo in doubt; 11) [listing 2 of 2 here] | inactive |  |  |
| CC(C(=O)Nc1ccc(Cl)cc1)N1CCC2C(CCCN2c2ccnc(C(F)(F)F)n2)C1 (stereo in doubt; 35) |  | 430 |  |
| Cc1nccc(N2CCCC3CC(C4(C(=O)Nc5ccc(F)cc5)CCC4)CCC32)n1 (stereo in doubt; 18) [listing 2 of 2 here] |  | 5.2 |  |
| Cc1nccc(N2CCCC3CC(C4(C(=O)Nc5ccc(F)cc5)CCC4)CCC32)n1 (stereo in doubt; 17) [listing 2 of 2 here] | inactive |  |  |
